The source of these data is article PMC5656836, “Distinct activation mechanisms trigger the trypanocidal activity of DNA damaging prodrugs” (Molecular Microbiology, 2017).

The subject of test [1] is differentiated THP‐1 cells. Nature of the test: Mammalian inhibition assay, differentiated THP-1 cells. The format is cell-based. Particulars: Homo sapiens, read-out: THP‐1 EC50.
For test [2], the system named is L. major promastigotes. Nature of the test: Growth inhibition of L. major promastigotes (resazurin). The format is cell-based. To be noted: for EC50: read-out: L. major EC50. In general terms: The colour change of resazurin is a common sign of viable cells or microbes.
Test [3] has as its system T. brucei over expressing TbCPR2 (Tbcpr2++). Nature of the test: microbe, parasite or virus in culture. Type of test: cell-based. Particulars: for EC50: Trypanosoma brucei, read-out: EC50 Tbcpr2++.
Test [4] has as its system T. brucei Tbntr heterozygote line. The format is cell-based.
In test [5] the test system is T. brucei Tbsnm1 null mutants (ΔTbsnm1). Nature of the test: microbe, parasite or virus in culture. Type of test: cell-based. To be noted: for EC50: Trypanosoma brucei, read-out: EC50 ΔTbsnm1.
The subject of test [6] is ΔTbsnm1 Tbntr++ T. brucei. The format is cell-based.
The subject of test [7] is T. brucei over expressing TbNTR (Tbntr++). Nature of the test: microbe, parasite or virus in culture. Type of test: cell-based. To be noted: for EC50: Trypanosoma brucei, read-out: EC50 Tbntr++.
Test [8] deals with RH1^RC2 T. brucei. Briefly: microbe, parasite or virus in culture. Type of test: cell-based. Particulars: read-out: EC50 RH1^RC2.
Test [9] has as its system T. cruzi epimastigotes. Briefly: Growth inhibition of T. cruzi epimastigotes (resazurin). The format is cell-based. To be noted: for EC50: Trypanosoma cruzi, 336 h, epimastigotes, 14 days, read-out: T. cruzi EC50.
The test system of test [10] is Wild type T. brucei. Type of test: cell-based.
In test [11] the test system is mouse peritoneal macrophages. Nature of the test: Toxicity to mouse peritoneal macrophages (cell counts, Giemsa). Type of test: cell-based, BALB/c mice. Particulars: Peritoneal macrophage, 120 h, read-out: EC50 towards mouse peritoneal macrophages.
Test [12] has as its system RH1^RC1 T. brucei. Briefly: microbe, parasite or virus in culture. The format is cell-based. To be noted: for EC50: read-out: EC50 RH1^RC1.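 As to ratio (fold difference in EC50 between RH1^RC1 and wild type): resistant clone selected by stepwise exposure to the aziridinyl benzoquinone prodrug in culture.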
Test [13] deals with bloodstream form T. brucei. Briefly: Growth inhibition of wild type / control bloodstream form T. brucei (resazurin). The format is cell-based.
The test system of test [14] is differentiated THP‐1 cells. Particulars: read-out: THP‐1 EC50, ref Voak et al., 2013; cited from earlier work.
Test [15] relates to ΔTbsnm1 Tbcpr2++ T. brucei. The format is cell-based.
Where [16] appears, read: 72 h, differentiated THP‐1 cells, 3 days.
The mark [17] stands for this setting: Leishmania major, 144 h, promastigotes, 6 days.
[18] abbreviates: non‐cancerous primary cells, up to 5 days.
Setting [19] is: Selectivity Index: fold difference in EC50 of THP‐1 line relative to parasite.
Where [20] appears, read: Trypanosoma brucei, Table 2, parasites expressing wild type levels, read-out: EC50 Control.
The mark [21] stands for this setting: Trypanosoma brucei, Table 3, BSF T. brucei wild type, read-out: EC50 Wild type.
The mark [22] stands for this setting: Trypanosoma brucei, Table 4, wild type T. brucei, read-out: EC50 Control.
The mark [23] stands for this setting: Trypanosoma brucei, read-out: EC50 Control.

Entries after “also recorded” stand apart in the source; their conditions may differ. Where two headings read alike, the source gives them in different places. A value given as a limit tells only on which side of the number the result lay.

One may read the EC50 as the concentration that produces a half-maximal response. The term inhibition denotes the relative decrease from the control value, in per cent. Take `CC1=C(N2CC2)C(=O)C(CO)=C(N2CC2)C1=O` [RH1]: the EC50 is less than 100 nM in test [1] (setting [16]); less than 100 nM in test [2] (setting [17]); 68 ± 1 nM in test [2] (promastigotes, 6 days); 20 nM in test [3]; 5 ± 1 nM in test [5]; 3 nM in test [7]. For the same compound, the EC50 in test [8] (Trypanosoma brucei) was 91 ± 11 nM; in test [8], 92 ± 1 nM; in test [11] (setting [18]), less than 100 nM; in [12] (Trypanosoma brucei) it was 86 ± 3 nM; in test [12], 83 ± 2 nM; in [13] (setting [20]), 19 ± 1 nM. For the same compound, the EC50 was 25 ± 6 nM in [13] (setting [21]) and 19 ± 1 nM in test [13] (setting [22]). In addition, the “L. major SI” value in [2] was less than 1. Also, the “L. major EC50” value in test [2] (promastigotes, 6 days) is listed as “high potency”. Also, in test [3], the “Fold difference in EC50 Tbcpr2++ relative to control” value is reported as 20 ± 3 (1.05). Further, the “EC50 of Tbntr heterozygote line relative to wild type (fold greater)” value in test [4] was “approximately 2.5 fold”. Further, the “Ratio of EC50 values ΔTbsnm1 / control” value in [5] is recorded as 0.26. In [5], the “Susceptibility of Tbsnm1 null mutants relative to wild type / control (fold more susceptible)” value was “threefold”. For the same compound, the “Fold increase in susceptibility of ΔTbsnm1 Tbntr++ versus wild type” value in test [6] is reported as 15 fold. In addition, the “Fold difference in EC50 Tbntr++ relative to control” value in test [7] is 3 ± 1 (0.16 ). Besides, the “Susceptibility of TbNTR over expressing T. brucei relative to controls / wild type (fold more susceptible)” value in test [7] is on record as “fivefold”. For the same compound, the “T. cruzi SI” value in test [9] is given as less than 33. For the same compound, in test [10], the “Cells in G1/S phase (1N1K)” value is 37%. Moreover, the “Cells in G2/M phase (1N2K)” value in [10] amounted to 58%. For the same compound, the “Doubling time of resistant clones” value in [12] is approximately 10.5 h. In [12], the “Fold less sensitive, RH1^RC lines versus controls” value was approximately 4.5 fold. For the same compound, the “Fold less sensitive, RH1^RC lines versus wild type” value in [12] is approximately 3.5 fold. Also, the “ratio (fold difference in EC50 between RH1^RC1 and wild type)” value in test [12] was 3.3. For the same compound, the “T. brucei SI” value in test [13] (setting [19]) is given as less than 5. Further, the inhibition at 0.005 µM in [13] (Trypanosoma brucei, 5 nM) is approximately 10%. In addition, in test [13] (medium containing RH1 (40 nM), after 24 hrs), the “Growth of wild type T. brucei” value is recorded as “no growth”.
`CC1CS(=O)(=O)CCN1/N=C/c1ccc([N+](=O)[O-])o1` (centres unmarked) [Nifurtimox, reference compound]: the EC50 in [2] (setting [17]) is 6280 ± 40 nM; in test [14], more than 100000 nM; in [5], 2250 ± 90 nM; in test [7], 315 nM; in test [9], 2600 ± 400 nM; in test [13] (setting [21]), 2700 ± 100 nM. The half-maximal effective concentration (EC50) is 2850 ± 20 nM in test [13] (setting [22]) and 2980 ± 30 nM in test [13] (setting [23]).
For the compound `O=C1C=C(N2CC2)C(=O)C(N2CC2)=C1N1CC1` [TZQ], the EC50 is less than 100 nM in test [1] (THP-1, 72 h); 284 nM in [3]; 46 ± 1 nM in [5]; 60 nM in [7]; less than 100 nM in test [11]; 179 ± 1 nM in test [13] (Trypanosoma brucei, 72 h, read-out: T. brucei EC50). For the same compound, the EC50 in [13] (setting [23]) was determined as 225 ± 26 nM; in [13] (read-out: EC50 Control), 253 ± 33 nM. Also, the “L. major SI” value in [2] is listed as less than 11. Also, the “Fold difference in EC50 Tbcpr2++ relative to control” value in [3] is 284 ± 13 (1.26). Further, the “Ratio of EC50 values ΔTbsnm1 / control” value in [5] worked out at 0.18. The “Susceptibility of Tbsnm1 null mutants relative to wild type / control (fold more susceptible)” value in test [5] is recorded as 2.7 fold. Moreover, the “Fold increase in susceptibility of ΔTbsnm1 Tbntr++ versus wild type” value in test [6] was found to be 15 fold. In addition, the “Fold difference in EC50 Tbntr++ relative to control” value in test [7] is reported as 60 ± 9 (0.27 ). Further, in test [9], the “T. cruzi SI” value is on record as less than 33. In addition, in [13], the “T. brucei SI” value is recorded as less than 1.
Take `O=C1C(N2CC2)=C(N2CC2)C(=O)C(N2CC2)=C1N1CC1` [ABQ22]: the EC50 in test [1] (setting [16]) is 138 ± 25 nM; in test [2] (setting [17]), 218 ± 20 nM; in [3], 20 nM; in test [5] it was 21 ± 5 nM; in test [7], 148 nM; in [9] it was 55 ± 2 nM. The EC50 in test [11] (setting [18]) amounted to 120 nM; in [12] (Trypanosoma brucei) it was 232 ± 27 nM; in test [13] (Trypanosoma brucei, 72 h, bloodstream form, 3 days, Table 1, activity of some compounds previously reported (Hall et al., 2012), read-out: T. brucei EC50), 148 ± 1 nM; in [13] (setting [20]), 138 ± 25 nM; in [13] (setting [21]), 197 ± 31 nM; in test [13] (setting [22]) it was 138 ± 25 nM. The “L. major SI” value in [2] is reported as 1. Besides, the “Fold difference in EC50 Tbcpr2++ relative to control” value in test [3] is 20 ± 3 (0.14 ). For the same compound, the “Susceptibility of TbCPR2 or 3 over expressing lines relative to control cells” value in test [3] is “hypersensitive; also recorded: sevenfold”. For the same compound, in test [5], the “Ratio of EC50 values ΔTbsnm1 / control” value was 0.15. Also, the “Susceptibility of Tbsnm1 null mutants relative to wild type / control (fold more susceptible)” value in test [5] is “sevenfold”. Further, the “Fold more sensitive, ΔTbsnm1 Tbcpr2++ versus wild type” value in test [15] amounted to 12.5 fold. For the same compound, in test [7], the “Fold difference in EC50 Tbntr++ relative to control” value is 148 ± 9 (1.07). Further, in test [9], the “T. cruzi SI” value was 3. The “Susceptibility of RH1 selected (RH1^RC) lines relative to wild type” value in [12] is given as “equally sensite”. For the same compound, in [12], the “ratio (fold difference in EC50 between RH1^RC1 and wild type)” value is given as 1.2. For the same compound, the “T. brucei SI” value in [13] (setting [19]) is 1.
